{
  "source": "patent US6482805B2",
  "about": "(Parker Hughes Institute, priority 1998, dated 2002)",
  "test_system": "female Swiss (CD-1) mice",
  "experiment": "Fertility of female mice after artificial insemination with intravaginal application (Example 7)",
  "format": "in vivo, mouse",
  "text": "Because fertilization in vivo is dependent on successful sperm transport through the female genital tract, we next determined whether exposure of sperm to the WHI-07 in vivo affected the subsequent fertility outcome. Hormonally primed adult female Swiss (CD-1) mice were artificially inseminated with motile epididymal sperm via the cervix with and without prior intravaginal application of WHI-07 in a cream base. Females were examined 8 days later for the presence or absence of embryos in uteri.\nMore particularly, adult (5-6 months old) female CD-1 mice were superovulated by an intraperitoneal injection (i. p.) of 5 IU of pregnant mare's serum gonadotropin followed by an i.p. injection of 5 IU of human chorionic gonadotropin 46-48 hours later. Mice were randomly assigned to one of the two treatment groups (27 or 24/group); vehicle controls [cream base (Taro Pharmaceuticals, Hawthorne, N.J.) with 1% DMSO], or test group (cream base with 1% WHI-07 in 1% DMSO) and given intravaginally (50 μl) prior to artificial insemination. Caudae epididymal sperm were obtained from proven breeder adult CD-1 male (5-6 months old) [B. Hogan, R. Beddington, F. Costantini, E. Lacy, Eds., Manipulating the Mouse Embryo (Cold Spring Harbor Laboratory Press, Plainview, N.Y., 1994] and suspended in a modified Krebs Ringer-bicarbonate medium (M2; Gibco-BRL) supplemented with pyruvate, lactate, and glucose. Sperm were capacitated in M2 medium-5% BSA for 1 hour prior to use. For each experiment cauda epididymal sperm pooled from 25 male mice and adjusted to 1-2×10^6 motile sperm/50 μl were used for insemination. A 50 μl volume/mouse was ejected through a 1 ml syringe with a blunted 18 gauge needle. Preparations were analyzed for sperm concentration, motility, and sperm motion parameters by CASA using software designed for oval sperm head morphology (Hamilton Thorne). On day 8, individual females representing the control and test group were killed and their uteri were examined for the presence or absence of embryos. A total of three independent fertility experiments were performed.",
  "key": {"[1]": {"details": "experiment 1, 27 mice, 1% WHI-07 in cream base intravaginally, day 8"}, "[2]": {"details": "experiment 2, 27 mice, 1% WHI-07 in cream base intravaginally, day 8"}, "[3]": {"details": "experiment 3, 24 mice, 1% WHI-07 in cream base intravaginally, day 8"}, "[4]": {"details": "total of three experiments, 78 mice, p < 0.001 vs control"}},
  "data": [
    {"smiles": "COC(=O)C(C)NP(=O)(OCC1OC(N2C(=O)NC(=O)C(C)(Br)C2OC)CC1N=[N+]=[N-])Oc1ccc(Br)cc1", "note": "(centres unmarked) [WHI-07, 5-Bromo-6-methoxy-5,6-dihydro-3′-azidothymidine-5′-(p-Bromophenyl Methoxyalaninyl Phosphate)]", "values": [
      {"measurement": "No. of WHI-07-treated mice fertile", "setting": "[1]", "result": 2},
      {"measurement": "WHI-07-treated mice fertile (%)", "setting": "[1]", "result": 7.4, "unit": "%"},
      {"measurement": "No. of WHI-07-treated mice fertile", "setting": "[2]", "result": 1},
      {"measurement": "WHI-07-treated mice fertile (%)", "setting": "[2]", "result": 3.7, "unit": "%"},
      {"measurement": "No. of WHI-07-treated mice fertile", "setting": "[3]", "result": 3},
      {"measurement": "WHI-07-treated mice fertile (%)", "setting": "[3]", "result": 12.5, "unit": "%"},
      {"measurement": "No. of WHI-07-treated mice fertile", "setting": "[4]", "result": 6},
      {"measurement": "WHI-07-treated mice fertile (%)", "setting": "[4]", "result": 7.6, "unit": "%"}
    ]}
  ]
}
